Measurements from patent US20240034729A9, “HETEROCYCLIC COMPOUND, INTERMEDIATE, PREPARATION METHOD THEREFOR AND APPLICATION THEREOF” (WUHAN LL SCIENCE AND TECHNOLOGY DEVELOPMENT CO., LTD., priority 2018, published 2024).

Experiments:
[1] = In vitro metabolic stability, guinea pig liver microsome; format: in vitro ADME; settings: liver microsomes, 1 mg/mL liver microsome protein, 37° C., NA = essentially not metabolized, read-out: T1/2 in guinea pig liver microsome
Procedure: (§1) The in vitro metabolic stability of the compounds disclosed herein was determined through incubation of liver microsomes of various species. A proper amount of test compound was added into a liver microsome reaction system (1 mg/mL liver microsome protein, 25 U/mL glucose-6 phosphate dehydrogenase, 1 mM NADP, 6 mM D-glucose 6-phosphate and 5 mM MgCl2), and then the mixture was incubated in a water bath kettle at 37° C. to start the reaction. At each time point, 100 μL of the reaction mixture was added into a centrifuge tube containing 400 μL of internal standard working solution (containing a 200 ng/mL solution of dexamethasone, diclofenac, tolbutamide and labetalol in acetonitrile) precooled at 0° C. so as to terminate the reaction, and the mixture was then centrifuged at 10,000 g for 10 min at 4° C. The supernatant was collected for LC-MS assay so as to obtain the values of in vitro metabolic half-life of the test compounds in liver microsomes of various species.

[2] = In vitro metabolic stability, human liver microsome; format: in vitro ADME; settings: liver microsomes, 1 mg/mL liver microsome protein, 37° C., NA = essentially not metabolized, read-out: T1/2 in human liver microsome
Procedure: as §1, with “A proper amount of test compound was added into a liver microsome reaction system (1 mg/mL liver microsome protein, 25 U/mL glucose-6 phosphate dehydrogenase, 1 mM NADP, 6 mM D-glucose 6-phosphate and 5 mM MgCl2), and then the mixture was incubated in a water bath kettle at 37° C. to start the reaction.” left out

[3] = In vitro cytotoxicity assay, CCK-8 method; format: cell-based; settings: human, HepG2 cells
Procedure: In vitro cytotoxicity assay for the compounds disclosed herein was performed in HepG2 cells using the CCK-8 method. HepG2 cells (Beina Bio) in the logarithmic growth phase were collected, the concentration of cell suspension was adjusted, and then the cells were plated on a 96-well cell culture plate at 50,000 cells/well. The cells were then incubated overnight in a cell incubator of 5% […] at 37° C., and after 80-90% cell confluence was achieved, test compounds or vehicle (DMSO) at various concentration gradients were added after medium change. The plate was incubated in a cell incubator of 5% […] at 37° C. for 48 h. After the treatment, the medium in the plate was discarded. The plate was washed twice with PBS, added with CCK-8 working solution (Beyotime) at 100 μL per well, and then incubated at 37° C. for 1.5 h away from light. Absorbance at OD450nm was measured for each well on a microplate reader, and CC50 value of each compound was analyzed and calculated.

[4] = In vitro metabolic stability, rat liver microsome; format: in vitro ADME; settings: liver microsomes, 1 mg/mL liver microsome protein, 37° C., NA = essentially not metabolized, read-out: T1/2 in rat liver microsome
Procedure: as §1, with “A proper amount of test compound was added into a liver microsome reaction system (1 mg/mL liver microsome protein, 25 U/mL glucose-6 phosphate dehydrogenase, 1 mM NADP, 6 mM D-glucose 6-phosphate and 5 mM MgCl2), and then the mixture was incubated in a water bath kettle at 37° C. to start the reaction.” left out

[5] = target: hP2X3 (human purinergic P2X receptor subtype 3) (Homo sapiens (Human), UniProt P56373); test: FLIPR calcium assay, hP2X3 expressed in HEK293 cells; format: cell-based; settings: read-out: P2X3 IC50
Sequence of hP2X3 (human purinergic P2X receptor subtype 3) (P56373 whole entry): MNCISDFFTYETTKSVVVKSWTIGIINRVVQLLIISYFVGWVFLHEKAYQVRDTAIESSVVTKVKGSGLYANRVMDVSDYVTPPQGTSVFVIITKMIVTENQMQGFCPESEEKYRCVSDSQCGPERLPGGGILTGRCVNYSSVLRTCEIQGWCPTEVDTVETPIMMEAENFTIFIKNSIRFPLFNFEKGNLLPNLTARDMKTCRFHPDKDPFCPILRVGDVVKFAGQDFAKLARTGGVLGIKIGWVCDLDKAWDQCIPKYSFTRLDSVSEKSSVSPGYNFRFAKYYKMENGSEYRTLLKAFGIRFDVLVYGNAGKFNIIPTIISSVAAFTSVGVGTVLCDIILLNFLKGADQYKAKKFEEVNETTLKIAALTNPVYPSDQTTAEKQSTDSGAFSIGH

[6] = target: hP2X2/3 (heterodimeric receptors formed by human purinergic P2X receptors subtype 2 and subtype 3) (Homo sapiens (Human), UniProt P56373+Q9UBL9); test: FLIPR calcium assay, hP2X2/3 expressed in HEK293 cells (P2X2/3 receptor selectivity); format: cell-based; settings: for IC50: HEK293 cells expressing hP2X2/3, agonist BZ-ATP 5 μM, unit inferred
Sequence of hP2X2/3 (heterodimeric receptors formed by human purinergic P2X receptors subtype 2 and subtype 3) (P56373 whole entry): as above
Sequence of hP2X2/3 (heterodimeric receptors formed by human purinergic P2X receptors subtype 2 and subtype 3) (Q9UBL9 whole entry): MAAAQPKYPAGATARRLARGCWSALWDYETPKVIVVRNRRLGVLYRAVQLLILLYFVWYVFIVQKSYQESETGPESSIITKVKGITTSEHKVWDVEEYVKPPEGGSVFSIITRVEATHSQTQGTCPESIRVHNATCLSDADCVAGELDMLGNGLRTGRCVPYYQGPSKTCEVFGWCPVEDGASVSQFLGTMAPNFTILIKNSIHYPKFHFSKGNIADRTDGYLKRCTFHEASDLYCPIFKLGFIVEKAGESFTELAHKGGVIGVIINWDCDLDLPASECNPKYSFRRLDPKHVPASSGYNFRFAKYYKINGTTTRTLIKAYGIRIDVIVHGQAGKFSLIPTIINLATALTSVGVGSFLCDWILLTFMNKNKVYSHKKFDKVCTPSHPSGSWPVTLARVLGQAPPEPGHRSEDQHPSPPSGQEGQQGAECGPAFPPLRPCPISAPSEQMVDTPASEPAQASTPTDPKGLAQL

half-life [1]	Structure (SMILES)	half-life [2]	CC50 at 48 h [3]	half-life [4]	IC50 [5]	Folds of selectivity [6]	IC50 [6]
47.6 min	COC(=O)N1CCO[C@@H](Cc2c(-c3c(F)cc(-n4ccnc4)cc3F)nc3cc(C)ccn23)C1 [Compound 5, methyl (S)-2-((2-(2,6-difluoro-4-(1H-imidazol-1-yl)phenyl)-7-methylimidazo[1,2-a]pyridin-3-yl)methyl)morpholine-4-carboxylate]	649 min	72 µM	37.3 min	–	–	–
13.5 min	COC(=O)N1CCO[C@@H](Cc2c(-c3c(F)cc(-c4ncco4)cc3F)nc3cc(C)ccn23)C1 [Compound 10, methyl (S)-2-((2-(2,6-difluoro-4-(oxazol-2-yl)phenyl)-7-methylimidazo[1,2-a]pyridin-3-yl)methyl)morpholine-4-carboxylate]	223 min	15.8 µM	30.8 min	–	–	–
4.27 min	COC(=O)N1CCO[C@@H](Cc2c(-c3c(F)cc(-c4ccco4)cc3F)nc3cc(C)ccn23)C1 [Compound 11, methyl (S)-2-((2-(2,6-difluoro-4-(furan-2-yl)phenyl)-7-methylimidazo[1,2-a]pyridin-3-yl)methyl)morpholine-4-carboxylate]	151 min	79.4 µM	5.65 min	–	–	–
7.56 min	COC(=O)N1CCO[C@@H](Cc2c(-c3c(F)cc(-c4cccs4)cc3F)nc3cc(C)ccn23)C1 [Compound 12, methyl (S)-2-((2-(2,6-difluoro-4-(thiophen-2-yl)phenyl)-7-methylimidazo[1,2-a]pyridin-3-yl)methyl)morpholine-4-carboxylate]	91.9 min	52.7 µM	7.78 min	–	–	–
–	COC(=O)N1CCO[C@@H](Cc2c(-c3c(F)cc(NC(=O)CCC(=O)O)cc3F)nc3cc(C)ccn23)C1 [Compound 25, (S)-4-((3,5-difluoro-4-(3-((4-(methoxycarbonyl)morpholin-2-yl)methyl)-7-methylimidazo[1,2-a]pyridin-2-yl)-phenyl)-amino)-4-oxobutanoic acid]	298 min	> 100 µM	228 min	< 10 nM	A (key: A: folds of selectivity >1000; B: 200< folds of selectivity ≤1000; C: folds of selectivity ≤200)	> 60 µM
–	COC(=O)N1CCO[C@@H](Cc2c(-c3c(F)cc(-c4ccc(C#N)[nH]4)cc3F)nc3cc(C)ccn23)C1 [Compound 138, methyl (S)-2-((2-(2,6-difluoro-4-(5-cyano-1H-pyrrol-2-yl)phenyl)-7-methylimidazo[1,2-a]pyridin-3-yl)methyl)morpholine-4-carboxylate]	–	–	–	< 10 nM	A (key: A: folds of selectivity >1000; B: 200< folds of selectivity ≤1000; C: folds of selectivity ≤200)	> 60 µM
–	COC(=O)N1CCO[C@@H](Cc2c(-c3c(F)cc(NC(C)=O)cc3F)nc3cc(C(F)F)ccn23)C1 [Compound 151]	–	–	–	< 10 nM	A (key: A: folds of selectivity >1000; B: 200< folds of selectivity ≤1000; C: folds of selectivity ≤200)	> 60 µM
–	CC(=O)N1CCO[C@@H](Cc2c(-c3c(F)cc(-n4ccnc4)cc3F)nc3cc(Cl)ccn23)C1 [Compound 158, (S)-1-(2-((7-chloro-2-(2,6-difluoro-4-(1H-imidazol-1-yl)phenyl)imidazo[1,2-a]pyridin-3-yl)methyl)morpholino)ethan-1-one]	–	> 100 µM	–	< 10 nM	A (key: A: folds of selectivity >1000; B: 200< folds of selectivity ≤1000; C: folds of selectivity ≤200)	> 60 µM
–	CC(=O)N1CCO[C@@H](Cc2c(-c3c(F)cc(-c4ncco4)cc3F)nc3cc(Cl)ccn23)C1 [Compound 159, (S)-1-(2-((7-chloro-2-(2,6-difluoro-4-(oxazol-2-yl)phenyl)imidazo[1,2-a]pyridin-3-yl)methyl)morpholino)ethan-1-one]	–	> 100 µM	–	–	–	–
–	CC(=O)N1CCO[C@@H](Cc2c(-c3c(F)cc(-n4cccn4)cc3F)nc3cc(Cl)ccn23)C1 [Compound 160, (S)-1-(2-((7-chloro-2-(2,6-difluoro-4-(1H-pyrazol-1-yl)phenyl)imidazo[1,2-a]pyridin-3-yl)methyl)morpholino)ethan-1-one]	–	> 100 µM	–	–	–	–
–	CC(=O)N1CCO[C@@H](Cc2c(-c3c(F)cc(-c4ncco4)cc3F)nc3cc(C)ccn23)C1 [Compound 163, (S)-1-(2-((2-(2,6-difluoro-4-(oxazol-2-yl)phenyl)-7-methylimidazo[1,2-a]pyridin-3-yl)methyl)morpholino)ethan-1-one]	–	> 100 µM	–	–	–	–
–	CC(=O)N1CCO[C@@H](Cc2c(-c3c(F)cc(-c4nnc[nH]4)cc3F)nc3cc(Cl)ccn23)C1 [Compound 166]	–	> 100 µM	–	< 10 nM	A (key: A: folds of selectivity >1000; B: 200< folds of selectivity ≤1000; C: folds of selectivity ≤200)	> 60 µM
–	CC(=O)Nc1cc(F)c(-c2nc3cc(C)ccn3c2C[C@H]2CN(C(C)=O)CCO2)c(F)c1 [Compound 167, (S)—N-(4-(3-((4-acetylmorpholin-2-yl)methyl)-7-methylimidazo[1,2-a]pyridin-2-yl)-3,5-difluorophenyl)acetamide]	–	> 100 µM	–	–	–	–
–	COC(=O)N1CCO[C@@H](Cc2c(-c3c(F)cc(S(N)(=O)=O)cc3Cl)nc3cc(C)ccn23)C1 [Compound 177, methyl (S)-2-((2-(2-chloro-6-fluoro-4-sulfamoylphenyl)-7-methylimidazo[1,2-a]pyridin-3-yl)methyl)morpholine-4-carboxylate]	325 min	–	–	1.1 nM	–	–
–	COC(=O)N1CCO[C@@H](Cc2c(-c3ccc(S(N)(=O)=O)cc3Cl)nc3cc(Cl)ccn23)C1 [Compound 178, methyl (S)-2-((7-chloro-2-(2-chloro-4-sulfamoylphenyl)imidazo[1,2-a]pyridin-3-yl)methyl)morpholine-4-carboxylate]	1230 min	–	–	0.1 nM	–	–
–	COC(=O)N1CCO[C@@H](Cc2c(-c3ccc(S(N)(=O)=O)cc3C(F)(F)F)nc3cc(C)ccn23)C1 [Compound 189, methyl (S)-2-((7-methyl-2-(4-sulfamoyl-2-(trifluoromethyl)phenyl)imidazo[1,2-a]pyridin-3-yl)methyl)morpholine-4-carboxylate]	145 min	–	–	10 nM	–	–
–	COC(=O)N1CCO[C@@H](Cc2c(-c3ncc(S(N)(=O)=O)nc3Cl)nc3cc(C)ccn23)C1 [Compound 191]	–	–	–	< 10 nM	A (key: A: folds of selectivity >1000; B: 200< folds of selectivity ≤1000; C: folds of selectivity ≤200)	> 60 µM

Structure (SMILES)	half-life [1]	half-life [2]	CC50 at 48 h [3]	half-life [4]	IC50 [5]	Folds of selectivity [6]	IC50 [6]
CC(=O)N1CCO[C@@H](Cc2c(-c3c(F)cc(S(N)(=O)=O)cc3F)nc3cc(C)ccn23)C1 [Compound 173, (S)-4-(3-((4-acetylmorpholin-2-yl)methyl)-7-methylimidazo[1,2-a]pyridin-2-yl)-3,5-difluorobenzenesulfonamide]	647 min	–	> 200 µM	101 min	1.8 nM	18811	33.9 µM
CC(=O)N1CCO[C@@H](Cc2c(-c3c(F)cc(S(N)(=O)=O)cc3F)nc3cc(Cl)ccn23)C1 [Compound 174, (S)-4-(3-((4-acetylmorpholin-2-yl)methyl)-7-chloroimidazo[1,2-a]pyridin-2-yl)-3,5-difluorobenzenesulfonamide]	1110 min	–	> 200 µM	398 min	1.6 nM	–	–
COC(=O)N1CCO[C@@H](Cc2c(-c3c(F)cc(S(C)(=O)=O)cc3F)nc3cc(C)ccn23)C1 [Compound 175, methyl (S)-2-((2-(2,6-difluoro-4-(methylsulfonyl)phenyl)-7-methylimidazo[1,2-a]pyridin-3-yl)methyl)morpholine-4-carboxylate]	> 30 min	> 30 min	–	> 30 min	> 10000 nM	–	–
